From PubChem BioAssay AID256 (DTP/NCI, 2004) come the findings set out here.

Molecules are shown by their SMILES. Where “and” joins values, the source holds several entries; their conditions need not be identical. Identical values can stand only once. Inconclusive results and toxic doses are left out.

The subject of this assay is CD2F1 mice, L1210 leukemia ip, survival T/C. The assay can be described thus: NCI In Vivo Anticancer Drug Screen. Data for tumor model L1210 Leukemia (intraperitoneal) in CD2F1 (CDF1) mice. The settings on record: higher = longer survival. Summed up:
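In this screen, transplantable tumors were grown in mice given either the compound or its vehicle. Results were expressed as the treated measurement relative to the control measurement.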

The mark [1] stands for this setting: endpoint: mean survival time, dose: 100.0 mg/kg/injection, schedule: Q01DX001 (ip), vehicle: saline with Tween-80.
[2] abbreviates: endpoint: mean survival time, dose: 100.0 mg/kg/injection, schedule: Q04DX002 (ip), vehicle: saline with Tween-80.
The mark [3] stands for this setting: endpoint: mean survival time, dose: 200.0 mg/kg/injection, schedule: Q01DX001 (ip), vehicle: saline with Tween-80.
Setting [4] is: endpoint: mean survival time, dose: 200.0 mg/kg/injection, schedule: Q04DX002 (ip), vehicle: saline with Tween-80.
Where [5] appears, read: endpoint: mean survival time, dose: 400.0 mg/kg/injection, schedule: Q01DX001 (ip), vehicle: saline with Tween-80.
Setting [6] is: endpoint: mean survival time, dose: 400.0 mg/kg/injection, schedule: Q04DX002 (ip), vehicle: saline with Tween-80.
Where [7] appears, read: endpoint: mean survival time, dose: 100.0 mg/kg/injection, schedule: Q01DX009 (ip), vehicle: saline with Tween-80.
Where [8] appears, read: endpoint: mean survival time, dose: 100.0 mg/kg/injection, schedule: Q04DX003 (ip), vehicle: saline with Tween-80.
[9] abbreviates: endpoint: mean survival time, dose: 200.0 mg/kg/injection, schedule: Q04DX003 (ip), vehicle: saline with Tween-80.
Where [10] appears, read: endpoint: mean survival time, dose: 400.0 mg/kg/injection, schedule: Q04DX003 (ip), vehicle: saline with Tween-80.
[11] abbreviates: endpoint: mean survival time, dose: 200.0 mg/kg/injection, schedule: Q01DX009 (ip), vehicle: saline with Tween-80.
Where [12] appears, read: endpoint: mean survival time, dose: 400.0 mg/kg/injection, schedule: Q01DX009 (ip), vehicle: saline with Tween-80.
[13] abbreviates: endpoint: mean survival time, dose: 25.0 mg/kg/injection, schedule: Q01DX009 (ip), vehicle: saline with Tween-80.
Where [14] appears, read: endpoint: mean survival time, dose: 50.0 mg/kg/injection, schedule: Q01DX009 (ip), vehicle: saline with Tween-80.
The mark [15] stands for this setting: endpoint: mean survival time, dose: 25.0 mg/kg/injection, schedule: Q04DX003 (ip), vehicle: saline with Tween-80.
[16] abbreviates: endpoint: mean survival time, dose: 50.0 mg/kg/injection, schedule: Q04DX003 (ip), vehicle: saline with Tween-80.

For `CCN(CC)n1c(=O)[nH]n(CC)c1=O`, the T/C by setting is: under setting [1], 101 % of control; under setting [2], 101 % of control; under setting [3], 97 % of control; under setting [4], 93 % of control; under setting [5], 100 % of control; under setting [6], 101 % of control.
On to `Cc1cc(N=Nc2ccc(S(=O)(=O)[O-])cc2)cc(C(=O)[O-])c1[OH2+].Cc1cc(N=Nc2ccc(S(=O)(=O)[O-])cc2)cc(C(=O)[O-])c1[OH2+].NC1CCCCC1N.[Na+].[Pt+4]`, for which the T/C (endpoint: median survival time, dose: 6.25 mg/kg/injection, schedule: Q04DX003 (ip), vehicle: saline with Tween-80) is 172 % of control; the T/C (endpoint: median survival time, dose: 6.25 mg/kg/injection, schedule: Q04DX003 (ip), vehicle: saline) is 172 % of control; the T/C (endpoint: median survival time, dose: 12.5 mg/kg/injection, schedule: Q04DX003 (ip), vehicle: saline with Tween-80) was 344 % of control; the T/C (endpoint: median survival time, dose: 12.5 mg/kg/injection, schedule: Q04DX003 (ip), vehicle: saline) is 253 % of control; the T/C (endpoint: median survival time, dose: 25.0 mg/kg/injection, schedule: Q04DX003 (ip), vehicle: saline with Tween-80) is 313 % of control; the T/C (endpoint: median survival time, dose: 25.0 mg/kg/injection, schedule: Q04DX003 (ip), vehicle: saline) is 289 % of control. Moreover, the T/C (endpoint: median survival time, dose: 50.0 mg/kg/injection, schedule: Q04DX003 (ip), vehicle: saline with Tween-80) was 106 % of control.
Turning to `COc1ccc(C(=O)/C=C/c2ccc(O)cc2)cc1`, the T/C is, setting by setting: (endpoint: mean survival time, dose: 37.5 mg/kg/injection, schedule: Q01DX009 (ip), vehicle: saline) 98 % of control; (endpoint: mean survival time, dose: 75.0 mg/kg/injection, schedule: Q01DX009 (ip), vehicle: saline) 102 % of control; (endpoint: mean survival time, dose: 150.0 mg/kg/injection, schedule: Q01DX009 (ip), vehicle: saline) 98 % of control.
Consider `O=[N+]([O-])c1cc(S(=O)(=O)O)cc(S(=O)(=O)O)c1O`, for which the T/C (endpoint: mean survival time, dose: 100.0 mg/kg/injection, schedule: Q04DX002 (ip), vehicle: saline) was 100 % of control; the T/C (endpoint: mean survival time, dose: 200.0 mg/kg/injection, schedule: Q04DX002 (ip), vehicle: saline) is 107 % of control; the T/C (endpoint: mean survival time, dose: 400.0 mg/kg/injection, schedule: Q04DX002 (ip), vehicle: saline) is 103 % of control.
In the case of `O=S(Nc1ccccc1)Nc1ccccc1`, the T/C under setting [7] is 95 % of control, the T/C under setting [8] is 97 % of control, the T/C under setting [9] is 94 % of control and the T/C under setting [10] was 97 % of control.
`COc1ccc(/C=C/C(=O)c2ccc(OC)c(OC)c2)cc1OC`: the T/C by setting is: under setting [8], 96 % of control; under setting [9], 101 % of control; under setting [10], 98 % of control.
As to `CCOC(=O)C(C#N)c1ccccc1` (stereo unspecified), the T/C under setting [2] is 94 % of control and the T/C under setting [4] is 94 % of control.
On to `CCCCCCCCCCCCCCCCCCOCCCCCCCCCCCCCCCCCC`, for which the T/C was 102 % of control under setting [7]; 95 % of control under setting [8]; 98 % of control under setting [11]; 88 % of control under setting [9]; 93 % of control under setting [12]; 92 % of control under setting [10].
`O=C1CCCC2C3CC(CN12)C1CCCCN1C3` (stereo unspecified): the T/C reads like this: under setting [13], 103 % of control; under setting [14], 101 % of control; under setting [7], 100 % of control; under setting [8], 97 % of control.
As to `O=[N+]([O-])c1cc(I)c(I)c(I)c1`, the T/C is 98 % of control under setting [8], 104 % of control under setting [9] and 98 % of control under setting [10].
On to `O=c1c2c([nH]c3ccccc13)CSC2`, for which the T/C runs as follows: under setting [8], 92 % of control; under setting [9], 87 % of control; under setting [10], 94 % of control.
In the case of `COc1ccc(CCNC2C3CC4CC(C3)CC2C4)cc1OC` (stereo unspecified), the T/C reads like this: under setting [15], 112 % of control; under setting [16], 101 % of control; under setting [8], 101 % of control.
As for `CC1=CC(=O)C(CCC(=O)O)C(C)(C)C1` (stereo unspecified), the T/C by setting is: under setting [2], 91 % of control; under setting [4], 94 % of control; under setting [6], 94 % of control.
Regarding `OC(c1ccccc1)c1ccc2c(c1)CCC2` (stereo unspecified), the T/C runs as follows: under setting [8], 102 % of control; under setting [9], 98 % of control; under setting [10], 94 % of control.
Turning to `[O-][n+]1ccccc1C[P+](c1ccccc1)(c1ccccc1)c1ccccc1`, the T/C (endpoint: mean survival time, dose: 12.5 mg/kg/injection, schedule: Q01DX009 (ip), vehicle: water) was 101 % of control; the T/C (endpoint: mean survival time, dose: 25.0 mg/kg/injection, schedule: Q01DX009 (ip), vehicle: water) is 100 % of control; the T/C (endpoint: mean survival time, dose: 50.0 mg/kg/injection, schedule: Q01DX009 (ip), vehicle: water) was 105 % of control; the T/C (endpoint: mean survival time, dose: 100.0 mg/kg/injection, schedule: Q01DX009 (ip), vehicle: water) was 96 % of control.
Turning to `CC(=O)N(C)c1ccc(NC(=O)Nc2ccc(C)c(C)c2)cc1`, the T/C is, setting by setting: under setting [14], 91 % of control; under setting [7], 91 % of control; under setting [11], 88 % of control.
Take `CCCCCCCCCCCCS`: the T/C was 101 % of control under setting [15]; 97 % of control under setting [16]; 100 % of control and 108 % of control under setting [8]; 91 % of control under setting [9]; 91 % of control under setting [10].
Regarding `COc1cc2c(cc1OC)C(CCN1C(=O)CCC1=O)=NCC2`, the T/C reads like this: (endpoint: mean survival time, dose: 50.0 mg/kg/injection, schedule: Q01DX009 (ip), vehicle: saline sonified) 96 % of control; (endpoint: mean survival time, dose: 100.0 mg/kg/injection, schedule: Q01DX009 (ip), vehicle: saline sonified) 102 % of control; (endpoint: mean survival time, dose: 100.0 mg/kg/injection, schedule: Q04DX003 (ip), vehicle: saline sonified) 98 % of control; (endpoint: mean survival time, dose: 200.0 mg/kg/injection, schedule: Q01DX009 (ip), vehicle: saline sonified) 100 % of control; (endpoint: mean survival time, dose: 200.0 mg/kg/injection, schedule: Q04DX003 (ip), vehicle: saline sonified) 103 % of control.
As for `N#CC1C2CCC(O2)C1C(=O)OCc1ccccc1` (stereo unspecified), the T/C was 102 % of control under setting [13]; 106 % of control (endpoint: mean survival time, dose: 25.0 mg/kg/injection, schedule: Q04DX002 (ip), vehicle: saline with Tween-80); 102 % of control under setting [14]; 101 % of control (endpoint: mean survival time, dose: 50.0 mg/kg/injection, schedule: Q04DX002 (ip), vehicle: saline with Tween-80); 102 % of control under setting [7]; 101 % of control under setting [2]. In addition, the T/C under setting [4] was 89 % of control.
As to `Nc1nc(-c2cc(Br)ccc2N=NN2CCCC2)nc2ccc(Br)cc12`, the T/C is 95 % of control (endpoint: mean survival time, dose: 100.0 mg/kg/injection, schedule: Q04DX002 (ip), vehicle: Klucel (hydroxypropylcellulose) (HPC)); 113 % of control (endpoint: mean survival time, dose: 200.0 mg/kg/injection, schedule: Q04DX002 (ip), vehicle: Klucel (hydroxypropylcellulose) (HPC)); 98 % of control (endpoint: mean survival time, dose: 400.0 mg/kg/injection, schedule: Q04DX002 (ip), vehicle: Klucel (hydroxypropylcellulose) (HPC)).
In the case of `CC(=O)Nc1nc(C)c(CC/C=C/c2ccc([N+](=O)[O-])cc2)c(Cl)n1`, the T/C by setting is: under setting [1], 94 % of control; under setting [3], 89 % of control; under setting [5], 89 % of control.
As for `CCOC(=O)CCN1C(=O)NC(C)(c2ccccc2)C1=O` (stereo unspecified), the T/C by setting is: (endpoint: mean survival time, dose: 100.0 mg/kg/injection, schedule: Q01DX009 (ip), vehicle: Klucel (hydroxypropylcellulose) (HPC)) 100 % of control; (endpoint: mean survival time, dose: 200.0 mg/kg/injection, schedule: Q01DX009 (ip), vehicle: Klucel (hydroxypropylcellulose) (HPC)) 98 % of control; (endpoint: mean survival time, dose: 400.0 mg/kg/injection, schedule: Q01DX009 (ip), vehicle: Klucel (hydroxypropylcellulose) (HPC)) 114 % of control.
Turning to `CCCC/C=C/C(=O)O`, the T/C reads like this: under setting [14], 98 % of control; under setting [7], 98 % of control; under setting [11], 102 % of control.
With `CC([NH-])CC(C)[NH-].O=C(O)C(=O)O.[Pt+2]` (stereo unspecified), the T/C by setting is: (endpoint: mean survival time, dose: 12.5 mg/kg/injection, schedule: Q04DX003 (ip), vehicle: saline with Tween-80) 169 % of control; (endpoint: mean survival time, dose: 12.5 mg/kg/injection, schedule: Q04DX003 (ip), vehicle: saline) 156 % of control; under setting [15], 100 % of control; (endpoint: mean survival time, dose: 25.0 mg/kg/injection, schedule: Q04DX003 (ip), vehicle: saline) 186 % of control.
`CC(=O)Nc1cc(/C=C/c2ccccc2)ccc1S(=O)(=O)c1ccc(/C=C/c2ccccc2)cc1NC(C)=O`: the T/C is, setting by setting: under setting [7], 93 % of control; under setting [11], 96 % of control; under setting [12], 88 % of control.
